Structures can show the parent of a compound that is named as a salt. Where two headings read alike, the source gives them in different places.

These results are taken from patent publication US6486164B2, “6-(4-arylalkylpiperazin-1-yl) benzodioxane and 6-(4-arylalkylpiperazin-1-yl) chromane derivatives: dopamine receptor subtype specific ligands” (Neurogen Corporation, priority 1998, dated 2002).

One series addresses T1, D4 receptors from human (Homo sapiens, UniProt P21917).
T1 construct: expressed in transfected cells; host or cells: COS cells
T1 sequence (P21917 1-419): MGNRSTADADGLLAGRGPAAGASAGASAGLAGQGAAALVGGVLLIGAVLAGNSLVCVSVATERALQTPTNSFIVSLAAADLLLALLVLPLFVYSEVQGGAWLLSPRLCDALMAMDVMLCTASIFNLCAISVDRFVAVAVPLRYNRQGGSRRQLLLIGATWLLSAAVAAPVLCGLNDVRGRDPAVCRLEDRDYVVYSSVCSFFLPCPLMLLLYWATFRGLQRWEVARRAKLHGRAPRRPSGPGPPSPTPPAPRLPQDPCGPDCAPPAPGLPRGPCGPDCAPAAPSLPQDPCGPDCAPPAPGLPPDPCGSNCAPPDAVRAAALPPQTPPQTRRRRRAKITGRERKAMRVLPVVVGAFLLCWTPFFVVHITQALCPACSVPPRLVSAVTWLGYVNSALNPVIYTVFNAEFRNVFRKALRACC
The series can be described thus: D4 receptor binding assay (3H-YM 09151-2 displacement). How it is done: (§1) Pellets of COS cells containing recombinantly produced D2, D3 or D4 receptors from human are used for the assays. The sample is homogenized in 100 volumes (w/vol) of 0.05 M Tris HCl buffer at 4° C. and pH 7.4. The sample is then centrifuged at 30,000×g and resuspended and rehomogenized. The sample is then centrifuged as described and the final tissue sample is frozen until use. The tissue is resuspended 1:20 (wt/vol) in 0.05 M Tris HCl buffer containing 100 mM NaCl.

The target of another series is T2, D3 receptors from human (Homo sapiens, UniProt P35462).
T2 construct: expressed in transfected cells; host or cells: COS cells
T2 sequence (P35462 whole entry): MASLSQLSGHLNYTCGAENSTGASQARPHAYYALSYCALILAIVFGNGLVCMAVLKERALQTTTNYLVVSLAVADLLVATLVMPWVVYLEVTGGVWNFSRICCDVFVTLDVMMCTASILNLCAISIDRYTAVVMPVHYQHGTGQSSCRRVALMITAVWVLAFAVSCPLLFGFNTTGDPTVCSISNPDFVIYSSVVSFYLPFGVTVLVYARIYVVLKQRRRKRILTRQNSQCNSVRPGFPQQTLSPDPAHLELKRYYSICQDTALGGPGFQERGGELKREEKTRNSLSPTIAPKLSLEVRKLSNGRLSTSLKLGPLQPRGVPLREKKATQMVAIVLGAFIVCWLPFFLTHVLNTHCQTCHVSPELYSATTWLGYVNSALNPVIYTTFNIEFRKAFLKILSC
The series can be described thus: D3 receptor binding assay (3H-YM 09151-2 displacement). How it is done:
as §1

Another series addresses T3, D2 receptors from human (Homo sapiens, UniProt P14416).
T3 construct: expressed in transfected cells; host or cells: COS cells
Kind of series: D2 receptor binding assay (3H-YM 09151-2 displacement). The procedure:
as §1

Where [1] appears, read: recombinant human receptor in COS cells, 0.5 nM 3H-YM 09151-2, read-out: D4 Ki.
[2] abbreviates: recombinant human receptor in COS cells, 0.5 nM 3H-YM 09151-2, read-out: D3 Ki.
The mark [3] stands for this setting: recombinant human receptor in COS cells, 0.5 nM 3H-YM 09151-2, read-out: D2 Ki.

T3 sequence (P14416 whole entry): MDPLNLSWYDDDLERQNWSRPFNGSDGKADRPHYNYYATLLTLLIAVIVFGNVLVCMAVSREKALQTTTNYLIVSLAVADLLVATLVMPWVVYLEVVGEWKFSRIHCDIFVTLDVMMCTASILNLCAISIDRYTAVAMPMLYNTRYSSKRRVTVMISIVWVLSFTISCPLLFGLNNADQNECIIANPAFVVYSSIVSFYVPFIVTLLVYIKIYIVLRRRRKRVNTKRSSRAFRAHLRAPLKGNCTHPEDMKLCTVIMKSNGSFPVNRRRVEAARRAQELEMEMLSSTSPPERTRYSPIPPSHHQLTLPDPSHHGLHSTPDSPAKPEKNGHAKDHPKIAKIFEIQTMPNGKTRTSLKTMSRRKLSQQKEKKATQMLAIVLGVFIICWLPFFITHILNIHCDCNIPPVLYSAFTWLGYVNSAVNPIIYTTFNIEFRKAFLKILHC

Take `Cl.c1ccc(CN2CCN(c3ccc4c(c3)OCCO4)CC2)cc1`: the melting point fell in the range of 143 to 145 °C.
Same read-out and setting: next, `Cc1ccc(CN2CCN(c3ccc4c(c3)OCCO4)CC2)cc1.O=C(O)C(=O)O`: 200 to 201 °C; `COc1ccc(CN2CCN(c3ccc4c(c3)OCCO4)CC2)cc1.O=C(O)C(=O)O`: 193 to 195 °C; `Clc1cccc(CN2CCN(c3ccc4c(c3)OCCO4)CC2)c1.O=C(O)C(=O)O`: 213 to 215 °C.
Still for that read-out and setting: the figure for `Clc1ccccc1CN1CCN(c2ccc3c(c2)OCCO3)CC1.O=C(O)C(=O)O` is 175 °C.
Take `COc1ccccc1CN1CCN(c2ccc3c(c2)OCCO3)CC1.O=C(O)C(=O)O`: the melting point was found to be 143 °C.
Take “1-(Chroman-6-yl)-4-(4-methylbenzyl)piperazine Oxalate [Compound 4]”: the figures for the Ki at D4 receptors from human (setting [1]), on D3 receptors from human (setting [2]) and on D2 receptors from human (setting [3]) were 0.035 µM, 2.99 µM and 2.31 µM, respectively.
Compound `COc1cccc(CN2CCN(c3ccc4c(c3)OCCO4)CC2)c1` (as salt: oxalate) [Compound 2, 1-(1,4-benzodioxan-6-yl)-4-(3-methoxybenzyl)piperazine oxalate] yielded a melting point of 213 to 215 °C.
`Clc1ccc(CN2CCN(c3ccc4c(c3)OCCO4)CC2)cc1` (as salt: oxalate) [Compound 3, 1-(1,4-benzodioxan-6-yl)-4-(4-chlorobenzyl)piperazine oxalate]: the melting point lay within 213 to 215 °C.
`Fc1ccc(CN2CCN(c3ccc4c(c3)OCCO4)CC2)cc1` [Compound 1, 1-(1,4-Benzodioxan-6-yl)-4-(4-fluorobenzyl)piperazine Oxalate]: the values for the Ki on D4 receptors from human, at D3 receptors from human and at D2 receptors from human were 0.011 µM, 3.66 µM and above 4 µM, respectively.
Turning to `COc1cccc(CN2CCN(c3ccc4c(c3)OCCO4)CC2)c1` [Compound 2, 1-(1,4-benzodioxan-6-yl)-4-(3-methoxybenzyl)piperazine oxalate], the Ki was 0.037 µM on D4 receptors from human (setting [1]), 2.57 µM on D3 receptors from human (setting [2]) and 2.59 µM at D2 receptors from human (setting [3]).
Regarding `Clc1ccc(CN2CCN(c3ccc4c(c3)OCCO4)CC2)cc1` [Compound 3, 1-(1,4-benzodioxan-6-yl)-4-(4-chlorobenzyl)piperazine oxalate], the Ki was 0.025 µM on D4 receptors from human, 2.63 µM on D3 receptors from human and above 4 µM on D2 receptors from human.
